Data reported in patent publication US4259235A, “Tricyclic nitrogenous compounds having string plant growth regulating properties” (BASF Aktiengesellschaft, priority 1977, dated 1981).

Columns and labels:
spring wheat [1] = assay: Growth height of spring wheat, soil treatment, Example 10; format: in vivo, spring wheat ("Opal" variety)
Description: (§1) Spring wheat ("Opal" variety) and spring barley ("Union" variety) were grown under greenhouse conditions in plastic dishes 11.5 cm in diameter, in a peat substrate provided with sufficient nutrients. For the soil (preemergence) treatment, the active ingredients were poured, at two application rates, as aqueous formulations onto the surface of the substrate after sowing.
(§2) The plant height was measured at the end of the experiment. The figures obtained show the shortening effect of the active ingredients under investigation. The prior art compound β-chloroethylphosphonic acid (Ethephon, German Printed Application DAS No. 1,667,968) was used for comparison purposes.

spring wheat [2] = assay: Growth height of spring wheat, leaf treatment, Example 10; format: in vivo, spring wheat ("Opal" variety)
Description: as §1
(§3) Leaf treatment was effected by spraying the plants at a growth height of 10 cm with aqueous formulations of the active ingredients at two application rates.
as §2

spring barley [3] = assay: Growth height of spring barley, leaf treatment, Example 10; format: in vivo, spring barley ("Union" variety)
Description: as §1, §3, §2

spring barley [4] = assay: Growth height of spring barley, soil treatment, Example 10; format: in vivo, spring barley ("Union" variety)
Description: as §1, §2

grass = assay: Growth height of, and amount of mowings in, grass, Example 12; format: in vivo; settings: for First mowing, growth height, relative / First mowing, mowings, relative / Second mowing, growth height, relative / Second mowing, mowings, relative: control = 100
Excerpt: In an experiment in large vessels, lawn seed of the following standard composition was sown in a loamy soil: Agrostis tenuis (10%), Cynosurus cristatus (10%), Festuca rubra (15%), Lolium perenne (35%) and Poa pratensis (30%). 1.5 g of N as ammonium nitrate and 1 g of P2 O5 as secondary potassium phosphate were applied as fertilizer. After the grass had been cut twice, the active ingredients were sprayed in conventional manner at various application rates onto the grass which was 4 cm high. The growth height and the mowings were determined 19 days after the treatment. Compared with the control, the treated plants reacted with most considerable height reductions and a proportionate decrease in mowings.

Structure (SMILES): Cc1ccc(C2=NOC3C4CC(C5N=NC45)C23)cc1 (centres unmarked) [drawing 395]
- Plant height (spring wheat [1]; 3 kg/ha): 23.5 cm
- Plant height, % of untreated control (spring wheat [1]; 3 kg/ha): 73.4%
- Plant height (spring wheat [1]; 12 kg/ha): 22.0 cm
- Plant height, % of untreated control (spring wheat [1]; 12 kg/ha): 68.8%

Structure (SMILES): O=[N+]([O-])c1ccc(C2=NOC3C4CC(C5N=NC45)C23)cc1 (centres unmarked) [drawing 400]
- Plant height (spring wheat [2]; 1.5 kg/ha): 29.0 cm
- Plant height, % of untreated control (spring wheat [2]; 1.5 kg/ha): 88.4%
- Plant height (spring wheat [2]; 6.0 kg/ha): 27.0 cm
- Plant height, % of untreated control (spring wheat [2]; 6.0 kg/ha): 82.3%

Structure (SMILES): FC(F)(F)c1cccc(NC2C(I)C3CC2C2N=NC32)c1 (centres unmarked) [drawing 403]
- Plant height (spring wheat [2]; 1.5 kg/ha): 27.5 cm
- Plant height, % of untreated control (spring wheat [2]; 1.5 kg/ha): 83.3%
- Plant height (spring wheat [2]; 6.0 kg/ha): 25.5 cm
- Plant height, % of untreated control (spring wheat [2]; 6.0 kg/ha): 77.7%

Structure (SMILES): Cc1ccc(C2=NOC3C4CC(C5N=NC45)C23)cc1 (centres unmarked) [drawing 413]
- Plant height (spring barley [3]; 1.5 kg/ha): 25.5 cm
- Plant height, % of untreated control (spring barley [3]; 1.5 kg/ha): 91.1%
- Plant height (spring barley [3]; 6.0 kg/ha): 25.0 cm
- Plant height, % of untreated control (spring barley [3]; 6.0 kg/ha): 89.3%

Structure (SMILES): O=[N+]([O-])c1ccc(C2=NOC3C4CC(C5N=NC45)C23)cc1 (centres unmarked) [drawing 406]
- Plant height (spring barley [4]; 3 kg/ha): 27.0 cm
- Plant height, % of untreated control (spring barley [4]; 3 kg/ha): 78.8%
- Plant height (spring barley [4]; 12 kg/ha): 24.0 cm
- Plant height, % of untreated control (spring barley [4]; 12 kg/ha): 70.0%

Structure (SMILES): Clc1ccc(C2N=NC3C4CC(C5N=NC45)C23)cc1 (centres unmarked) [drawing 404]
- Plant height (spring barley [4]; 3 kg/ha): 22.0 cm
- Plant height, % of untreated control (spring barley [4]; 3 kg/ha): 64.1%
- Plant height (spring barley [4]; 12 kg/ha): 20.0 cm
- Plant height, % of untreated control (spring barley [4]; 12 kg/ha): 58.3%

Structure (SMILES): Clc1ccc(C2=NOC3C4CC(C5N=NC45)C23)cc1 (centres unmarked) [drawing 402]
- Plant height (spring wheat [2]; 1.5 kg/ha): 29.0 cm
- Plant height, % of untreated control (spring wheat [2]; 1.5 kg/ha): 88.4%
- Plant height (spring wheat [2]; 6.0 kg/ha): 27.0 cm
- Plant height, % of untreated control (spring wheat [2]; 6.0 kg/ha): 82.3%

Structure (SMILES): FC(F)(F)c1cccc(NC2C(I)C3CC2C2N=NC32)c1 (centres unmarked) [drawing 415]
- Plant height (spring barley [3]; 1.5 kg/ha): 25.0 cm
- Plant height, % of untreated control (spring barley [3]; 1.5 kg/ha): 89.3%
- Plant height (spring barley [3]; 6.0 kg/ha): 24.0 cm
- Plant height, % of untreated control (spring barley [3]; 6.0 kg/ha): 85.7%

Structure (SMILES): Cc1ccc(C2=NOC3C4CC(C5N=NC45)C23)cc1 (centres unmarked) [drawing 401]
- Plant height (spring wheat [2]; 1.5 kg/ha): 29.5 cm
- Plant height, % of untreated control (spring wheat [2]; 1.5 kg/ha): 89.9%
- Plant height (spring wheat [2]; 6.0 kg/ha): 27.5 cm
- Plant height, % of untreated control (spring wheat [2]; 6.0 kg/ha): 83.3%

Structure (SMILES): O=[N+]([O-])c1ccc(C2=NOC3C4CC(C5N=NC45)C23)cc1 (centres unmarked) [drawing 394]
- Plant height (spring wheat [1]; 3 kg/ha): 25.5 cm
- Plant height, % of untreated control (spring wheat [1]; 3 kg/ha): 79.7%
- Plant height (spring wheat [1]; 12 kg/ha): 22.0 cm
- Plant height, % of untreated control (spring wheat [1]; 12 kg/ha): 68.8%

Structure (SMILES): Clc1ccc(C2N=NC3C4CC(C5N=NC45)C23)cc1 (centres unmarked) [drawing 410]
- Plant height (spring barley [3]; 1.5 kg/ha): 22.0 cm
- Plant height, % of untreated control (spring barley [3]; 1.5 kg/ha): 78.6%
- Plant height (spring barley [3]; 6.0 kg/ha): 19.5 cm
- Plant height, % of untreated control (spring barley [3]; 6.0 kg/ha): 69.6%

Structure (SMILES): Brc1ccc(C2=NOC3C4CC(C5N=NC45)C23)cc1 (centres unmarked) [drawing 399]
- Plant height (spring wheat [2]; 1.5 kg/ha): 29.0 cm
- Plant height, % of untreated control (spring wheat [2]; 1.5 kg/ha): 88.4%
- Plant height (spring wheat [2]; 6.0 kg/ha): 27.5 cm
- Plant height, % of untreated control (spring wheat [2]; 6.0 kg/ha): 83.8%

Structure (SMILES): COc1ccc(C2=NOC3C4CC(C5N=NC45)C23)cc1 (centres unmarked) [drawing 396]
- Plant height (spring wheat [1]; 3 kg/ha): 27.0 cm
- Plant height, % of untreated control (spring wheat [1]; 3 kg/ha): 84.4%
- Plant height (spring wheat [1]; 12 kg/ha): 24.5 cm
- Plant height, % of untreated control (spring wheat [1]; 12 kg/ha): 76.6%

Structure (SMILES): Clc1ccc(C2N=NC3C4CC(C5N=NC45)C23)cc1 (centres unmarked) [drawing 425]
- First mowing, growth height (grass; 3.0 kg/ha): 20.0 cm
- First mowing, mowings (grass; 3.0 kg/ha): 125.1 g
- Second mowing, growth height (grass; 3.0 kg/ha): 19.0 cm
- Second mowing, mowings (grass; 3.0 kg/ha): 89.9 g
- First mowing, growth height, relative (grass; 3.0 kg/ha): 91.7
- First mowing, mowings, relative (grass; 3.0 kg/ha): 93.2
- Second mowing, growth height, relative (grass; 3.0 kg/ha): 95.0
- Second mowing, mowings, relative (grass; 3.0 kg/ha): 99.2
- First mowing, growth height (grass; 6.0 kg/ha): 18.0 cm
- First mowing, mowings (grass; 6.0 kg/ha): 119.0 g
- Second mowing, growth height (grass; 6.0 kg/ha): 19.0 cm
- Second mowing, mowings (grass; 6.0 kg/ha): 92.2 g
- First mowing, growth height, relative (grass; 6.0 kg/ha): 82.6
- First mowing, mowings, relative (grass; 6.0 kg/ha): 88.7
- Second mowing, growth height, relative (grass; 6.0 kg/ha): 95.0
- Second mowing, mowings, relative (grass; 6.0 kg/ha): 101.8
